In paper PMC4666306 (European journal of medicinal chemistry, 2015):

Experiments:
[1] = test system: BaF3 cells transformed with FLT3-ITD containing gatekeeper (F691L) mutation; conditions: 48 h post treatment
[2] = test system: BaF3 cells transformed with FLT3-ITD containing activation loop (D835V) mutation; conditions: 48 h post treatment

Compound: Fc1ccc(-c2cnc3cc(-c4ccco4)ccn23)cc1 [Compound 21, 3-(4-Fluorophenyl)-7-(furan-2-yl)imidazo[1,2-a]pyridine]
- GI50 +ITD F691L [1]: ineffective
- GI50 +ITD D835V [2]: ineffective
